Experimental data: patent US20240299393A1, “SMALL MOLECULE DISRUPTORS OF PROTEIN INTERACTIONS IN HISTONE DEACETYLASE COMPLEXES” (Dana-Farber Cancer Institute, Inc., priority 2021, published 2024)
Where “and” joins values, the source holds several entries; their conditions need not be identical. Equal entries are not always repeated. Entries after “also recorded” stand apart in the source; their conditions may differ. Square brackets hold non-standard residues; d marks the D form. Peptide text beside a SMILES is read from it. ξ: configuration not given here. Aoe(9ξ) = N[C@@H](CCCCCC(=O)C1CO1)C(=O)O; dPip = O=C(O)[C@H]1CCCCN1

Assays:
[1] = tested on: CDKN1A, SOCS3, EGR1 in SK-N-BE(2)-C cells; test: RT-qPCR of SIN3 HDAC complex-regulated genes in neuroblastoma cells; format: cell-based, human; details: 100 μM for 16 h
Protocol: (§1) The RT-qPCR protocol used in this study was described elsewhere [Choi et al 2012]. Culture, RNA extraction, and compound treatments for neuroblastoma SK-N-BE(2)-C cells are described below. Approximately 1 μg RNA per sample was used for reverse transcription. Using a thermocycler, RNA was denatured in the presence of 0.2 μg 18 mer oligo-dT by heating the plate at 65° C. for 10 min. The plate was then immediately cooled down on ice to anneal oligo-dT on the poly-A tail of mRNA. A master mix of AffinityScript Multiple Temperature Reverses Transcriptase (Agilent, cat #600107) was prepared following the manufacturer's protocol, and mixed with RNA samples previously annealed with the oligo-dT. The plate was incubated at 42° C. for 2 h to generate cDNAs from mRNA templates. The reverse transcriptase was then denatured by heating the plate at 70° C. for 15 min. The resulting cDNA was diluted (1:20) in sterile, ultra pure water (ddH2O), and stored at −20° C. until used for qPCR. To measure gene expression, the diluted cDNA was mixed with 5 μL PowerUp SYBR Green master mix (Applied Biosystems, cat #A25743), and the mix of primers (forward+reverse, see FIG. 31; 0.3 μM final concentration) for a total volume of 10 μL. Two technical replicates were generated per cDNA sample in the 384-well PCR plate (Applied Biosystems, cat #4343370). The plate was tightly sealed with optical adhesive film (Applied Biosystems, cat #4311971). Quantitative PCR was conducted with a QuantStudio real-time PCR system from Applied Biosystems, with the following settings: 50° C./2 min, 95° C./10 min, 96° C./15 s/40 cycles, and 60° C./30 s. Dissociation curves were checked for each PCR product, to assess the specificity of the PCR amplicons.
SK-N-BE(2)-C cells were maintained in cell culture flasks supplemented with 10% Fetal bovine serum (FBS) and penicillin/streptomycin (PS) in Dulbecco's Modified Eagle's Medium (DMEM). The cells were maintained at a log phase in a humidified 5% CO2 incubator at 37° C. For testing the effect of the compounds on gene expression, approximately 0.1 million cells were seeded on each well of 24-well cell culture plates, with 1 mL 10% FBS+PS+DMEM. 24 h after seeding the cells, they were exposed to the compounds or DMSO control for 16 h in a humidified 5% CO2 incubator at 37° C., before harvesting them.
Cells were harvested for RNA extraction using Nucleospin 96 RNA (Macherey-Nagel, cat #740709.4) following manufacturer's protocol. Briefly, supernatant was removed, and the cells were gently washed with 1× phosphate-buffered saline. 300 μL lysis buffer were added to each well of 24 well cell culture plates. Roughly 0.1 million cells were used for harvesting each RNA sample. RNA concentration was measured for all purified RNA samples using a nanodrop spectrophotometer.

[2] = target: Sin3 PAH2/Ume6 SID interaction (Saccharomyces cerevisiae, UniProt P22579); test: biochemical
Sequence of Sin3 PAH2/Ume6 SID interaction (P22579 402-473): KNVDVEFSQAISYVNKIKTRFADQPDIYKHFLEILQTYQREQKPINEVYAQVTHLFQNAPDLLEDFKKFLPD
Protocol: IC50 determination for unlabeled Ume6 SID, E6, E6R and E6S: the concentrations of FITC-Ume6 SID (30 nM), and GST-Sin3 PAH2 (3 μM) were fixed and the compounds were titrated with an HP D300 (Hewlett-Packard, CA) to the assay plate. The assayed concentrations are given here as μM concentrations: 6, 6.6, 8.6, 11.2, 14.7, 19.3, 25.3, 33.1, 43.4, 56.9, 74.5, 97.7, 128, 167.7, 219.7, 287.9, 377.2, 494.2, 647.5 and 848.3.
Using a fluorescence polarization (FP) assay, the interaction between the two minimal domains of Sin3 and Ume6 reported in the literature was measured [Washburn & Esposito 2001, Le Guezennec et al 2006]: the paired amphipathic helix 2 (PAH2; residues 402-473) and the Sin3-interacting domain (SID; residues 516-531), respectively (FIG. 6A). In this FP setting, Sin3 PAH2 is N-terminally fused to a glutathione S-transferase (GST) tag while Ume6 SID is labeled with a fluorescein isothiocyanate (FITC) probe at the N-terminal position. […] The binding affinity of this interaction was evaluated at 0.9 μM, as reflected by the calculated equilibrium dissociation constant, KD.
To examine inhibition of the Sin3-Ume6 interaction by E6 outside of potential interference from other cellular components, an in vitro fluorescence polarization (FP) assay was used.

[3] = target: Sc Sin3 PAH2-Ume6 SID (TAMRA-labeled) interaction (Saccharomyces cerevisiae, UniProt P22579); test: biochemical
Sequence of Sc Sin3 PAH2-Ume6 SID (TAMRA-labeled) interaction (P22579 402-473): as above
Protocol: Symbols represent individual data points (A) or means with SEM, and lines fitted curves.
IC50 determination for unlabeled Ume6 SID, E6, E6R and E6S: the concentrations of FITC-Ume6 SID (30 nM), and GST-Sin3 PAH2 (3 μM) were fixed and the compounds were titrated with an HP D300 (Hewlett-Packard, CA) to the assay plate.

[4] = tested on: human neuroblastoma SK-N-BE(2)-C xenograft; test: Neuroblastoma xenograft efficacy study; format: in vivo; details: E6R 50 mg/kg, SAHA 20 mg/kg
Protocol: Xenografts studies were performed at the TRACE PDX platform of the Leuven Cancer Institute (LKI) at KU Leuven-UZ Leuven. Treatment experiments included 24 NMRI-Foxlnu nude mice (Taconic) implanted with human neuroblastoma cell line SK-N-BE(2)-C(2 million cells/implant/mouse). Cells, tested for a full panel of murine pathogens (Impact profile I, IDEXX) prior to engraftment, were resuspended in 50% matrigel solution in PBS for injection in the mouse right flank. When tumors reached a volume of approximately 200 mm^3, mice were randomly assigned to vehicle (34% DMSO, 55% saline 0.9%, 5% ethanol, 5% kolliphor, 1% NaOH 1 M), E6R (50 mg/kg), or SAHA (20 mg/kg) treatment groups. Treatments were administered daily intraperitoneally for 10 days or until reaching human endpoint (i.e. tumor volume >1,500 mm^3). Tumors were measured daily with digital calipers, and volume was estimated as V=L×W×H×(π/6) (L: length; W: width; H: height). […] All data were analyzed using GraphPad Prism 8. Comparisons between the vehicle and treated groups were tested for statistical significance using […].

[5] = tested on: DOI-induced head-twitch response (HTR); details: literature reports; cited from earlier work
[6] = tested on: Rpd3-regulated genes (URS-URA3, INO1, IME2, CAR1, SPO13, TRK2); test: RT-qPCR of Rpd3-regulated genes in yeast; format: cell-based, S. cerevisiae
Protocol: After yeast cells reached OD600 nm ˜0.5 in 0.8-1 mL of YPD, they were grown for two more hours at room temperature before being centrifuged to remove supernatant and freezing pellets on dry ice. For compound treatments, yeast cells at OD600 nm˜0.5 in YPD were incubated at room temperature for two hours with DMSO (1-1.6%) or the desired compound (from 25 mM stock in 100% DMSO) in an 2 mL-tube for a final volume of 0.8 mL in YPD, before being centrifuged, washed and frozen as described above. Yeast cells were then harvested for RNA extraction using a RiboPure RNA Purification Kit (Invitrogen, cat #AM1926), which involves mechanical cell wall disruption, phenol extraction of the lysate, and RNA purification using glass fiber, and filter-based RNA purification columns. RNA concentration was measured for individually purified RNA samples using a NanoDrop spectrophotometer. A total of 1 μg RNA from each sample was used for reverse transcription following a published procedure [Choi, S. G. et al 2012].
as §1
Expression of gene X normalized to the control gene expression=k*1.96^(Ct^Control^−Ct^Test^) • where k is an arbitrary multiplier (k=1000 in this study), 1.96 is the PCR amplification efficiency constant, Ct is the cycle threshold, CtControl is the Ct value for the housekeeping gene used as control (UBC6 in yeast [Teste et al 2009]; RPS11 in human cells [Zhan et al 2014], and CtTest is the Ct value for the tested gene. Replicates corresponding to DMSO treatments or WT yeast cells were averaged and other data points normalized using those DMSO or WT values as references (i.e. expression relative to DMSO or WT). TAF10 in yeast or SNRPD3 in human cells were used as genes not known for being regulated by an HDAC complex (HDAC-unrelated genes).

[7] = tested on: Rpd3-sensitive acid phosphatase activity; test: Yeast acid phosphatase plate assay; format: cell-based, S. cerevisiae; details: phosphate-rich (high Pi) medium
Protocol: The acid phosphatase plate assay was implemented as previously described [To et al 1973, Loewith et al 2001], with minor modifications. Cells were grown on high Pi medium (see above) for 2 days, at 30° C. A staining solution containing 2 mg/mL of 1-naphtyl phosphate (Sigma, N5602) and 4 mg/mL fast blue B salt (Sigma, D9805) was then prepared in 50 mM sodium acetate buffer pH 4.0±0.1, and maintained at 50° C. for ˜30 min before being filtered. Meanwhile, a solution of 10 mg/mL (1% weight/volume) ultra pure low melting point (LMP) agarose (Invitrogen, 15517-022) was prepared in 50 mM sodium acetate buffer pH 4.0±0.1, by microwaving the suspension until complete dissolution of the powder. The volume of the agarose solution was checked and readjusted with 50 mM sodium acetate buffer pH 4.0±0.1. The agarose solution was then mixed with the filtered staining solution by vortexing briefly, and the resulting suspension was kept at 50° C. for ˜15 min. The solid agar plate on which cells grew for 2 days were then gently overlaid with the agarose-containing staining solution, allowing its gelification on top of the cells. A red coloring started to appear ˜2 min after covering cells with the solution.

[8] = tested on: cycloheximide (CYH) sensitivity; test: Yeast cycloheximide sensitivity at 37° C.; format: cell-based, S. cerevisiae
Protocol: For assessment of cycloheximide (CYH) sensitivity at 37° C., yeast cells with the cyh2^R genotype (FIG. 29) were first transformed with an empty pDEST-AD-TRP1-CYH2 plasmid (FIG. 30) before running the different experiments. Selection of the plasmid was maintained by culturing cells in SC-W medium.

[9] = tested on: HDAC class I and II enzymes (live yeast cells, HeLa nuclear extract, semi-purified human HDAC1); test: HDAC-Glo I/II luminescence HDAC enzymatic assay; format: biochemical, S. cerevisiae; human; details: three HDAC sources
Protocol: The HDAC-Glo I/II screening system (Promega, cat #G6430) was adapted to measure the effect of compounds on the enzymatic activity of human and yeast HDAC sources. […] FLAG-HDAC1 was eluted from anti-FLAG beads before running the assay, using a FLAG peptide. Nuclear extracts from human HeLa cells were provided in the assay kit. HDAC enzymatic activity was measured following the manufacturer's protocol. Briefly, linear ranges of the assay were determined by measuring luminescence signals, in a serial dilution manner, for semi-purified human HDAC1, or live yeast cells, diluted in the HDAC-Glo I/II buffer. For HeLa nuclear extracts, the manufacturer provided this information in the assay kit. For the different HDAC sources, dilution factors corresponding to signals in the linear ranges were used. To test the effect of compounds (three or four replicates) on HDAC enzymatic activity, equal volumes of HDAC sources (5 μL), and inhibitors (5 μL) were added to the different wells of a white, flat bottom 384-well plate. The plate was then briefly centrifuged with a tabletop centrifuge, and gently shaken for 1 min at 700 rpm. The plate was tightly sealed to prevent evaporation, and incubated at room temperature for 1 h. […] Luminescence signals were measured using a TriStar luminometer from Berthold Technologies, with 1 s integration time per sample. […]

[10] = Mouse liver microsome stability test; format: in vitro ADME; details: 1 mg/mL hepatic microsomes
Protocol: Mouse liver microsome (MLM) half-life measurements were performed by Scripps Florida Pharmacology Core, according to their protocols [Lamberto et al 2017]. 1 mg/mL hepatic microsomes was used to test compounds.
To assess whether E6R may be suitable for testing the effect of HDAC inhibition via new mechanisms in mouse, the half-life […] and intrinsic clearance (Clint) of this compound was first measured using a standard microsomal metabolic assay where sunitinib was used as a control [Lamberto et al 2017]. In this setting, compound degradation is induced by concentrated microsomes isolated from mouse liver. In particular, these hepatic extracts contain the cytochrome P450 system that is primarily responsible for first pass metabolism in vivo.

Compound: C[C@H](NC(=O)c1c(O)n2ccccc2nc1=O)c1ccccc1 [E6S]
- effect on expression of CDKN1A, SOCS3 and EGR1 [1]: only perturbed expression of two of the tested downstream genes
- IC50 [2]: 155 µM and 174 µM
- Ki ([2]; inhibitory concentration (Ki), from Example 6 IC50, assuming competitive inhibition): ~30 µM
- Ki ([2]; inhibitory concentrations (Ki), from Example 6A IC50, assumption of competitive inhibition): 38.5 µM
- IC50 [3]: 597 µM

Compound: O=C(CCCCCCC(=O)Nc1ccccc1)NO [SAHA, suberoylanilide hydroxamic acid, reference compound]
- effect on expression of CDKN1A, SOCS3 and EGR1 [1]: derepressed
- tolerability and body weight of xenografted mice ([4]; daily): did not affect mice weight; also recorded: well-tolerated
- growth of neuroblastoma tumors compared to vehicle ([4]; daily intraperitoneally 10 days): significantly reduced the growth
- head-twitch behavior after chronic treatment [5]: reduced DOI-induced head-twitch behavior in WT, but not in HDAC2 cKO mice; also recorded: reduces head-twitch response (HTR) behavior

Compound: O=C(CCCCC[C@@H]1NC(=O)[C@H]2CCCCN2C(=O)[C@H](Cc2ccccc2)NC(=O)[C@H](Cc2ccccc2)NC1=O)C1CO1 (stereo partly shown) [TRX, trapoxin A] (cyclo(FF[dPip][Aoe(9ξ)]))
- effect on CAR1 and SPO13 expression ([6]; 250 μM): consistently derepressed
- effect on all Rpd3-regulated loci ([6]; FIG. 3I): activated all Rpd3-regulated loci
- Rpd3-sensitive acid phosphatase activity [7]: induced
- CYH sensitivity [8]: induced
- inhibition of HDAC enzymatic activity [9]: systematically reduced HDAC activity
- effect on expression of CDKN1A, SOCS3 and EGR1 [1]: derepressed

Compound: CCN(CC)CCNC(=O)c1c(C)[nH]c(/C=C2\C(=O)Nc3ccc(F)cc32)c1C [sunitinib, reference compound]
- half-life in mouse liver microsomes [10]: ~10 min
